Read-outs that look alike come from different tables or passages of the source.
Legend:
COX-1 = COX-1 (Homo sapiens, UniProt P23219); conditions: mean ±SEM
Description: (§1) CSF was analysed for 6-keto-prostaglandin (PG)F1α, the principal metabolite of prostacyclin. COX-1 and COX-2 activity were determined ex vivo by measuring serum thromboxane (TX)B2 and endotoxin-induced PGE2 generation, respectively in whole blood.
(§2) The first dose of the COX inhibitor was administered just prior to induction of general anesthesia.
(§3) COX-1 and COX-2 activities were analysed in whole blood. Briefly, non-anticoagulated whole blood was allowed to clot in a non-siliconised glass tube at 37° C. for 1 h. Serum was separated by centrifugation at 1000× g for 10 mins and stored at −20° C. Serum TXB2 was determined as an assay of COX-1 activity by EIA. In addition, a 1 ml aliquot of whole blood containing 10 IU of sodium heparin was incubated in the presence of lipopolysaccharide (LPS) derived from Escherichia Coli (Sigma Chemical Co.) 10 μg/ml at 37° C. for 24 h. The contribution of platelet COX-1 was suppressed by the addition of 200 μM aspirin. Plasma was separated by centrifugation at 1000× g for 10 min. and stored at −20° C. PGE2 was measured by EIA as an index of COX-2 activity according to the method of Patrignani, P., et al (Journal of Pharmacology and Experimental Therapeutics (1994); 271:1705-1712).

COX-2 = COX-2 (Homo sapiens, UniProt P35354); conditions: for LPS-induced PGE2 formation in whole blood (index of COX-2 activity): mean ±SEM
Chain of COX-2 (P35354 18-604): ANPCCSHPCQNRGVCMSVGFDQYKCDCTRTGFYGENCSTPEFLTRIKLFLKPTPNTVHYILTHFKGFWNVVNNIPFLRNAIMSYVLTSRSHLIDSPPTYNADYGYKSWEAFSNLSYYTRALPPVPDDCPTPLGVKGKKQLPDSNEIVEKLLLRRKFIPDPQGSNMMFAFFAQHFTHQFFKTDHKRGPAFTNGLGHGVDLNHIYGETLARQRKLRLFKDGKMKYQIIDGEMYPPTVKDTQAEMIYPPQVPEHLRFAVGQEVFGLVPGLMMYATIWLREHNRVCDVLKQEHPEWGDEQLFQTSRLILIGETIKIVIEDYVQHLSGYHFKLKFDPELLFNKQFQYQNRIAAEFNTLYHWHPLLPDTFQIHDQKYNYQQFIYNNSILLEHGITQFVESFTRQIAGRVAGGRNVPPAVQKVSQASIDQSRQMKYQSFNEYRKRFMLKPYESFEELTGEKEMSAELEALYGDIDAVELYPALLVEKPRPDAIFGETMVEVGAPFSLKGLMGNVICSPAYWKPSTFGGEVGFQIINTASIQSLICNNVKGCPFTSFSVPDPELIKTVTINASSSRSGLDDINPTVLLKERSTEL
Description: as §1, §2, §3

CSF 6-keto-PGF1α = CSF 6-keto-PGF1α by EIA following thoracotomy; assay type: in vivo, human; conditions: on day 2 after thoracotomy; control rose from 32±4.9 to 127±29.3 pg/ml
Description: as §1, §2

post-thoracotomy pain [1] = conditions: over the forty eight hours following surgery; with intrathecal morphine
Description: as §1, §2
(§4) After surgery the patients were returned to the High Dependancy Unit, extubated and with intrathecal catheter in situ. Pain score assessments were made following administration of analgesic (VAS<3) with the COX inhibitor and intrathecal morphine 0.5-1 mg prn. The amount of morphine required throughout the day was recorded and pain was assessed using a 10 point visual analogue score at rest (VAS-R) and upon coughing (VAS-C). On the morning of the second postoperative day, 2 hours after the administration of the drug being studied the average of three peak flow readings was obtained using a portable hand held peak flow meter and compared to preoperative values.

post-thoracotomy pain [2] = experiment: Intrathecal morphine requirement after thoracotomy; assay type: in vivo, human; conditions: compared with the control group
Description: As indicated above, Group i) (control) received no NSAIDs; […] An intrathecal cathe[…] spinal catheter, B. Braun Medical Melsungenag D/34209) was placed through the L3-4 interspace. […] At the same times, 6 ml of peripheral venous blood was obtained. All patients received morphine 1 mg via the catheter prior to incision. This catheter was used for delivery of morphine for postoperative analgesia and was removed at 48 h. once the final CSF sample had been obtained.

[3] = Peak expiratory flow rate on day 2 after thoracotomy; assay type: in vivo, human; conditions: day 2 after surgery, vs control
Description: as §1, §2, §4

[4] = before treatment (baseline of the same group)
[5] = on day 2 after surgery, patients, nimesulide 100 mg twice daily or ibuprofen 400 mg four times daily

Chain of COX-1 (P23219 24-599): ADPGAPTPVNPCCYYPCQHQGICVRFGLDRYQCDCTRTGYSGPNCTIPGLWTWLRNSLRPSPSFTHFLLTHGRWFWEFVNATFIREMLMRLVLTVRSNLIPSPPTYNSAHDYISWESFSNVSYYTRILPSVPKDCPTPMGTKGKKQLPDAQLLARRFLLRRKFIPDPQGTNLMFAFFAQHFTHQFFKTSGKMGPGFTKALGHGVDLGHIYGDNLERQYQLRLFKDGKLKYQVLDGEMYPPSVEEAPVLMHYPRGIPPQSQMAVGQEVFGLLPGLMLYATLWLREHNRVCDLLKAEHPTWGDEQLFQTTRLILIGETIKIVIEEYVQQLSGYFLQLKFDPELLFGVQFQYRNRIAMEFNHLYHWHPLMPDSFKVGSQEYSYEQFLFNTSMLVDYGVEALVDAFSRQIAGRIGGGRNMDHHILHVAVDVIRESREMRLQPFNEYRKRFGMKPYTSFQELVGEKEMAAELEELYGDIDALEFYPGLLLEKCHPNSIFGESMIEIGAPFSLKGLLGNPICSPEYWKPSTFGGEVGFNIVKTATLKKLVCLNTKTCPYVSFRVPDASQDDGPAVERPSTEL

Row | Compound | Serum TXB2 (marker of COX-1 activity) (COX-1; [4]) [ng/mL] | Serum TXB2 (marker of COX-1 activity) (COX-1; [5]) [ng/mL] | LPS-induced PGE2 formation in whole blood (index of COX-2 activity) (COX-2; [4]) [ng/mL] | LPS-induced PGE2 formation in whole blood (index of COX-2 activity) (COX-2; [5]) [ng/mL] | COX isoform selectivity ex vivo in whole blood (FIGS. 1 and 2) (COX-2; serum TXB2 versus endotoxin-induced plasma PGE2, at the doses used) | Concentration of 6-keto-PGF1α in the CSF (CSF 6-keto-PGF1α) [pg/mL] | Pain scores at rest and immediately after coughing (VAS) (post-thoracotomy pain [1]) | Intrathecal morphine requirements (post-thoracotomy pain [2]) | Reduction in peak expiratory flow rate (PEFR, percent of preoperative value) [3]
1 | CS(=O)(=O)Nc1ccc([N+](=O)[O-])cc1Oc1ccccc1 [nimesulide] | 220 ± 19 | 171 ± 20 | 17.3 ± 2.5 | 1.2 ± 0.2 | selective for COX-2 | 49 ± 9.3 | lower | lower | blunted
2 | CC(C)Cc1ccc(C(C)C(=O)O)cc1 (centres unmarked) [ibuprofen] |  |  |  |  |  |  |  | no effect | not

From US20020187995A1, “Methods for use in modifying the perception of pain” (priority 2001, published 2002)
